In patent US8426684B2 (Washington State University Research Foundation, priority 2004, dated 2013):
Several values for one entry are separate records, joined by “and”; a condition that tells them apart may be missing. Equal values may be shown once.

How the values were obtained:
[1] = molecular target: T1, menthone: (3R)-(−)-menthol reductase (SEQ ID NO:2) (Mentha x piperita, UniProt Q5CAF4); assay: Substrate specificity of the reductase; type: biochemical; details: 100 μM monoterpenone substrate, 500 μM NADPH, 0.5 μg reductase, pH optimum, overnight incubation
[2] = molecular target: T1, menthone: (3R)-(−)-menthol reductase (SEQ ID NO:2); details: at saturation under linear reaction conditions
Method: Assay mixtures containing 2 ml of 40 mM KH2PO4 at pH 7, with 10 mM β-mercaptoethanol were combined with 500 μM cofactor and concentrations of monoterpene substrate ranging from 2.5 μM to 1 mM, or with 100 μM monoterpene substrate, and concentrations of cofactor ranging from 0.1 μM to 1 mM, and preheated to 31° C. before initiation of the reaction by enzyme addition (0.008 to 1.3 μg protein). The reactions were quenched after 6 to 9 min by addition of 0.5 ml pentane containing camphor as internal standard (6.6 μM) followed by vigorous mixing and cooling on ice; quantitation of products in the pentane extract was achieved by capillary-GC using the conditions described above with peak area quantification using the internal standard for normalization. […] Kinetic constants, representing the average of at least two independent experiments, were determined by nonlinear regression analysis of Michaelis-Menten plots using Enzyme Kinetics, v 1.11 (Trinity Software, Plymouth, N.H.). The values reported are the means±standard error.

[3] = molecular target: T1, menthone: (3R)-(−)-menthol reductase (SEQ ID NO:2); assay: In vitro demonstration of menthone reductase activity (product analysis by GC, GC-MS); type: biochemical; details: partially purified recombinant protein
Method: Bacteria harboring the pSBET-reductase plasmid or the pET-reductase plasmid were grown in 5 ml cultures of Luria-Bertani (LB) media to an OD600 of 0.8-1.0, at which time the cultures were cooled to 10° C., isopropyl-β-D-thiogalactopyranoside was added to 0.25 mM, and growth was continued for 12-18 h at 10° C. with shaking at 220 rpm. Cells were pelleted by centrifugation for 25 min at 2500 g and 4° C., and then resuspended in 1 ml resuspension buffer (50 mM Mopso, pH 7, with 10% (v/v) glycerol, 10% (w/v) sorbitol, and 10 mM […]) containing 0.4 mg/ml lysozyme. Following incubation on ice for 30 min, the extract was sonicated for 10 sec with a Virtis sonicator using a microtip probe at medium power. Cell debris was pelleted by centrifugation at 27,000 g at 4° C. for 30 min, and the supernatant, containing the operationally soluble reductase, was used for initial characterization.
Following incubation with gentle shaking at 31° C. for 12 h, 0.5 ml of pentane was added and the mixture was vigorously mixed to extract the monoterpene products which were analyzed by GC and GC-MS as described above. […] Following 15 h of shaking (250 rpm) at 15-20° C., these cultures were transferred to 0.5 L round-bottom flasks, to which 6.6 μmol of (+)-camphor was added as an internal standard, and the mixture was steam distilled and the distillate analyzed as described above.

[4] = substrate: CC(C)[C@@H]1CC[C@@H](C)CC1=O; assay: purified protein, by the assay type; details: other: monoterpene substrate, NADPH as cofactor, reductase expressed from pSBET, pH 7, 31° C., means±standard error
[5] = substrate: CC(C)[C@H]1CC[C@@H](C)CC1=O; assay: purified protein, by the assay type; details: other: monoterpene substrate, NADPH as cofactor, reductase expressed from pSBET, pH 7, 31° C., means±standard error
[6] = molecular target: T1, menthone: (3R)-(−)-menthol reductase (SEQ ID NO:2); assay: pH optimum of the reductase; type: biochemical; details: 25 μM menthone, 500 μM NADPH, 0.5 μg protein, 6 min at 31° C.
[7] = from (+)-isomenthone in the presence of NADPH
[8] = from (−)-menthone in the presence of NADPH

C=C(C)[C@H]1CC[C@@H](C)CC1=O (relative stereo) [(+)-cis-isopulegone]
reduction of alternate substrate to the corresponding monoterpenols [1]: only able to detectably reduce (+)-menthone

C=C(C)C1CC=C(C)C(=O)C1 (single isomer, unassigned; (-)) [(−)-carvone]
reduction of alternate substrate to the corresponding monoterpenols [1]: only able to detectably reduce (+)-menthone

C=C(C)C1CCC(C)=CC1=O (single isomer, unassigned; (-)) [(−)-isopiperitenone]
reduction of alternate substrate to the corresponding monoterpenols [1]: only able to detectably reduce (+)-menthone

CC(C)=C1CC[C@@H](C)CC1=O [(+)-pulegone]
reduction of alternate substrate to the corresponding monoterpenols [1]: only able to detectably reduce (+)-menthone

NC(=O)C1=CN([C@@H]2O[C@H](COP(=O)(O)OP(=O)(O)OC[C@H]3O[C@@H](n4cnc5c(N)ncnc54)[C@H](O)[C@@H]3O)[C@@H](O)[C@H]2O)C=CC1 [NADH]
turnover with NADH as cofactor compared with NADPH [2]: less than 20%

CC(C)[C@H]1CC[C@@H](C)CC1=O [isomenthone, (+)-isomenthone]
product share (3R)-(+)-neoisomenthol [3, 7]: 87%
product share (3S)-(+)-isomenthol [3, 7]: 13%

CC(C)[C@@H]1CC[C@@H](C)CC1=O [menthone, (−)-menthone]
product share (3R)-(−)-menthol [3, 8]: 95%
product share (3S)-(+)-neomenthol [3, 8]: 5%

(+)-menthone
reduction of alternate substrate to the corresponding monoterpenols [1]: detectably reduce

B1: menthone: (3R)-(−)-menthol reductase (SEQ ID NO:2) (Mentha x piperita) (protein)
chain: MADTFTQRYALVTGANKGIGFEICRQLASKGMKVILASRNEKRGIEARERLLKESRSISDDDVVFHQLDVADPASAVAVAHFIETKFGRLDILVNNAGFTGVAIEGDISVYQECLEANIIAAQGGQAHPFHPKTTGRLIETLEGSKECIETNYYGTKRITETLIPLLQKSDSPTIVNVSSTFSTLLLQPNEWAKGVFSSNSLNEGKVEEVLHEFLKDFIDGKLQQNHWPPNFAAYKVSKAAVNAYTRIIARKYPSFCINSVCPGFVRTDICYNLGVLSEAEGAEAPVKLALLPDGGPSGSFFSREEALSLY
Km [4]: 3.0 ± 0.6 µM
kcat [4]: 0.6 s⁻¹
Km [5]: 41 ± 5 µM

B2: reductase (SEQ ID NO:2): recombinant peppermint menthone: (3R)-(−)-menthol reductase, 311 residue protein encoded by cDNA SEQ ID NO:1, expressed in E. coli (protein)
chain: B1 chain
modifications: Mentha Piperita
pH of half maximal activities [6]: 4.5 and 8.5
pH optimum [6]: 7.0
